These results are taken from patent US4489084A, “[1-(2-Oxazolyl) or -(2-thiazolyl) hydrazino]alkyl nitriles” (Abbott Laboratories, priority 1983, dated 1984).

Experiment [1] concerns dermal Arthus reaction (Type III hypersensitivity). In words: reverse passive Arthus assay (Carter and Krause). The class given is in vivo, rats (male Sprague-Dawley). The following applies: 100 mg/kg, oral, 30 min before intradermal AntiB.S.A.; lesion after 4 hours; 4 rats per group. The method, then: Proc. 35, 774 (1976). Each compound was administered orally to a group of four animals. The reserve passive Arthus reaction test in rats is conducted as follows: Male Sprague-Dawley rats weighing approximately 130-160 g. are used, 4 rats per group. All animals are injected intravenously with 0.5 ml. 0.075% Bovine Serum Albumin (B.S.A.) +2% Evans Blue solution. Each rat then receives an oral dose of drug; one drug is administered per group. Thirty minutes subsequent to drug dosing, each animal is injected intradermally with 0.05 ml. 1.44% AntiB.S.A. into the dorsal skin. Four hours later the animals are sacrificed, the dorsal skin reflexed, and the lesion excised. Two perpendicular diameters of each lesion are measured. The average diameters of the lesions from the treated groups are compared with the average diameters from the control group to determine any drug effect. […] Proc. 35, 774 (1976)]. Each compound was administered orally to a group of four animals.

Experiment [2] concerns carrageenin pleurisy (accumulation of exudate volume and leukocytes). Nature of the experiment: carrageenin pleurisy assay (modification of Vinegar et al.). Type of experiment: in vivo. The following applies: Dose 100 (unit not given); for % Inhibition, Volume exudates: exudate volume; for % Inhibition, Cells: leukocyte accumulation. The source says:
The anti-inflammatory activity of these compounds was established by using a modification of the carrageenin pleurisy assay described by Vinegar et al. Proc. Soc. Exp. Biol. Med. 143:711 (1973).

Counter-ions that a name gives are not always drawn.

For `N#CCCN(N)c1nc(-c2ccccc2)c(-c2ccccc2)o1` [3-[1-(4,5-diphenyl-2-oxazolylhydrazino)]propanenitrile hydrochloride], the “% Inhibition of lesion of dermal Arthus reaction” value in experiment [1] came out at 40%. Take `CCCCC1C(=O)N(c2ccccc2)N(c2ccccc2)C1=O` [Phenylbutazone, reference compound]: in experiment [2], the “% Inhibition, Volume exudates” value is on record as 59% and the “% Inhibition, Cells” value turned out to be 13%. In experiment [1], the “% Inhibition of lesion of dermal Arthus reaction” value is “Inactive”. Consider `Cl.N#CCCN(N)c1nc(-c2ccccc2)co1` [3-[1-(4-Phenyl-2-oxazolyl)-hydrazino]propanenitrile hydrochloride], for which the “% Inhibition of lesion of dermal Arthus reaction” value in experiment [1] turned out to be 59%.

In the case of `Cc1nc(N(N)CCC#N)oc1C.Cl` [3-[1-(4,5-dimethyl-2-oxazolyl)-hydrazino]propanenitrile hydrochloride], the “% Inhibition of lesion of dermal Arthus reaction” value in experiment [1] is given as 38%.

As to `Cl.N#CCCN(N)c1ncco1` [3-[1-(2-Oxazolyl)hydrazino]propanenitrile hydrochloride], in experiment [2], the “% Inhibition, Volume exudates” value worked out at 32% and the “% Inhibition, Cells” value was 21%. Further, in experiment [1], the “% Inhibition of lesion of dermal Arthus reaction” value is on record as 42%.
